Reference: patent US9540323B2 (BRISTOL-MYERS SQUIBB COMPANY, priority 2012, dated 2017)

Assays:
[1] = molecular target: cloned human P2Y1 receptors (Homo sapiens (Human), UniProt P47900); assay: Binding Assay B - Scintillation Proximity Assay (SPA) for P2Y1 binding, [33P] 2MeS-ADP; conditions: SPA, 0.3 nM [33P] 2MeS-ADP, Cheng-Prusoff; read-out: P2Y1 Ki (nM) using binding assay B
Description: Binding Assay B—Scintillation Proximity Assay (SPA) for P2Y1 Binding
A SPA membrane binding assay was used to identify inhibitors of [^33P] […] Reactions were allowed to proceed to completion at room temperature for 1 hour followed by centrifugation of the plate for 5 min. About 40 μL of the aqueous solution was aspirated. Plates were sealed and the [^33P]

[2] = tested on: human platelet rich plasma (PRP); assay: ADP induced platelet aggregation assay; conditions: Homo sapiens, Platelet, 5 min, read-out: PA IC50 (μM) @ 10 μM ADP, human PRP, 10 μM ADP, AUC at 5 minute

cloned human P2Y1 receptors, sequence (P47900 whole entry): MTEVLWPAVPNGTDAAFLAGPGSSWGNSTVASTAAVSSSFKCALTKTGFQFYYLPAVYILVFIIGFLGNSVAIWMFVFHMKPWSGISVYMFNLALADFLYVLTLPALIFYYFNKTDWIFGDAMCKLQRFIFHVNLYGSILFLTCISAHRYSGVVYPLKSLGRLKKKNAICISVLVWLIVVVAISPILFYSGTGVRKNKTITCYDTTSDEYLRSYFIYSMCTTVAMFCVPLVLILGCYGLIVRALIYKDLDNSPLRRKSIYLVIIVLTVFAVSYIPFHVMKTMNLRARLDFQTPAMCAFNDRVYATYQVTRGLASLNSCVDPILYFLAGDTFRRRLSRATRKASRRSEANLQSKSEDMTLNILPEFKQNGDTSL

CC(C)(C)CN1CCC(c2ccc(NC(=O)Nc3ccccc3N3CC(C)(C)c4c(C(F)(F)F)ccc(O)c43)cc2)CC1 [Example 2, 1-(2-(7-Hydroxy-3,3-dimethyl-4-(trifluoromethyl)indolin-1-yl)phenyl)-3-(4-(1-neopentylpiperidin-4-yl)phenyl)urea]
Ki [1]: 3.4 nM | IC50 [2]: 0.13 µM

CC1(C)CN(c2ccccc2NC(=O)NC2CCN(CC(F)(F)F)CC2)c2c(O)ccc(C(F)(F)F)c21 [Example 3, 1-(2-(7-Hydroxy-3,3-dimethyl-4-(trifluoromethyl)indolin-1-yl)phenyl)-3-(1-(2,2,2-trifluoroethyl)piperidin-4-yl)urea]
Ki [1]: 4.9 nM | IC50 [2]: 3.1 µM

CCC1(CC)CN(c2ccccc2NC(=O)Nc2ccc(C3CCN(CC(C)(C)C)CC3)cc2)c2c(O)ccc(F)c21 [Example 4, 1-(2-(3,3-Diethyl-4-fluoro-7-hydroxyindolin-1-yl)phenyl)-3-(4-(1-neopentylpiperidin-4-yl)phenyl)urea]
Ki [1]: 5.6 nM | IC50 [2]: 0.36 µM

CCC1(CC)CN(c2ccccc2NC(=O)Nc2ccc(OC(F)(F)F)cc2)c2c(O)cc(F)cc21 [Example 5, 1-(2-(3,3-Diethyl-5-fluoro-7-hydroxyindolin-1-yl)phenyl)-3-(4-(trifluoromethoxy)phenyl)urea]
Ki [1]: 16 nM | IC50 [2]: 1.05 µM

CC1(C)CN(c2ccccc2NC(=O)Nc2csc(Cl)n2)c2c(O)ccc(Br)c21 [Example 6, 1-(2-(4-Bromo-7-hydroxy-3,3-dimethylindolin-1-yl)phenyl)-3-(2-chlorothiazol-4-yl)urea]
Ki [1]: 24.4 nM | IC50 [2]: 0.31 µM

CCC1(CC)CN(c2ccccc2NC(=O)Nc2ccc(C3CCCN3CC(C)(C)C)cc2)c2c(O)cccc21 (centres unmarked) [Example 7, 1-(2-(3,3-Diethyl-7-hydroxyindolin-1-yl)phenyl)-3-(4-(1-neopentylpyrrolidin-2-yl)phenyl)urea]
Ki [1]: 8.6 nM | IC50 [2]: 0.55 µM

CCC1(CC)CN(c2ccccc2NC(=O)Nc2ccc(C3CCCN3CC(C)C)cc2)c2c(O)cccc21 (centres unmarked) [Example 8]
Ki [1]: 18.6 nM | IC50 [2]: 0.31 µM

CCC1(CC)CN(c2ccccc2NC(=O)Nc2nc3ccc(Cl)cc3s2)c2c(O)cccc21 [Example 9, 1-(6-Chlorobenzo[d]thiazol-2-yl)-3-(2-(3,3-diethyl-7-hydroxyindolin-1-yl)phenyl)urea]
Ki [1]: 14.2 nM | IC50 [2]: 0.39 µM

CCC1(CC)CN(c2ccccc2NC(=O)Nc2nc3ccc(C)cc3s2)c2c(O)cccc21 [Example 10, 1-(2-(3,3-Diethyl-7-hydroxyindolin-1-yl)phenyl)-3-(6-methylbenzo[d]thiazol-2-yl)urea]
Ki [1]: 7.6 nM | IC50 [2]: 0.54 µM

CC(C)CN1CCCC1c1ccc(NC(=O)Nc2ccccc2N2CC(C)(C)c3cccc(O)c32)cc1 (centres unmarked) [Example 11, 1-(2-(7-Hydroxy-3,3-dimethylindolin-1-yl)phenyl)-3-(4-(1-isobutylpyrrolidin-2-yl)phenyl)urea]
Ki [1]: 36.8 nM | IC50 [2]: 1.08 µM

CC1(C)CN(c2ccccc2NC(=O)Nc2ccc(OC(F)(F)F)cc2)c2c(O)ccc(C(F)(F)F)c21 [Example 12, 1-(2-(7-Hydroxy-3,3-dimethyl-4-(trifluoromethyl)indolin-1-yl)phenyl)-3-(4-(trifluoromethoxy)phenyl)urea]
Ki [1]: 5 nM | IC50 [2]: 0.2 µM

CC(C)(C)c1ccc(NC(=O)Nc2ccccc2N2CC(C)(C)c3c(C(F)(F)F)ccc(O)c32)cc1 [Example 13, 1-(4-tert-Butylphenyl)-3-(2-(7-hydroxy-3,3-dimethyl-4-(trifluoromethyl)indolin-1-yl)phenyl)urea]
Ki [1]: 8.2 nM | IC50 [2]: 0.13 µM

CC1(C)CN(c2ccccc2NC(=O)Nc2ccc(F)cc2F)c2c(O)ccc(C(F)(F)F)c21 [Example 14, 1-(2,4-Difluorophenyl)-3-(2-(7-hydroxy-3,3-dimethyl-4-(trifluoromethyl)indolin-1-yl)phenyl)urea]
Ki [1]: 5.2 nM | IC50 [2]: 0.48 µM

Cc1nc(NC(=O)Nc2ccccc2N2CC(C)(C)c3c(C(F)(F)F)ccc(O)c32)cs1 [Example 15, 1-(2-(7-Hydroxy-3,3-dimethyl-4-(trifluoromethyl)indolin-1-yl)phenyl)-3-(2-methylthiazol-4-yl)urea]
Ki [1]: 7.3 nM | IC50 [2]: 0.95 µM

CC1(C)CN(c2ccccc2NC(=O)Nc2csc(Cl)n2)c2c(O)ccc(C(F)(F)F)c21 [Example 16, 1-(2-Chlorothiazol-4-yl)-3-(2-(7-hydroxy-3,3-dimethyl-4-(trifluoromethyl)indolin-1-yl)phenyl)urea]
Ki [1]: 6.2 nM | IC50 [2]: 0.12 µM

CC1(C)CN(c2ccccc2NC(=O)Nc2ccc(C(F)(F)F)cc2)c2c(O)ccc(C(F)(F)F)c21 [Example 17, 1-(2-(7-Hydroxy-3,3-dimethyl-4-(trifluoromethyl)indolin-1-yl)phenyl)-3-(4-(trifluoro-methyl)phenyl)urea]
Ki [1]: 16.4 nM | IC50 [2]: 0.27 µM

CC1(C)CN(c2ccccc2NC(=O)Nc2nc3ccc(F)cc3s2)c2c(O)ccc(C(F)(F)F)c21 [Example 18, 1-(6-Fluorobenzo[d]thiazol-2-yl)-3-(2-(7-hydroxy-3,3-dimethyl-4-(trifluoromethyl)indolin-1-yl)phenyl)urea]
Ki [1]: 12.4 nM | IC50 [2]: 0.17 µM

CC1(C)CN(c2ccccc2NC(=O)Nc2nc3ccc(Cl)cc3s2)c2c(O)ccc(C(F)(F)F)c21 [Example 19, 1-(6-Chlorobenzo[d]thiazol-2-yl)-3-(2-(7-hydroxy-3,3-dimethyl-4-(trifluoromethyl)indolin-1-yl)phenyl)urea]
Ki [1]: 23.6 nM | IC50 [2]: 0.12 µM

CCN1CCc2nc(NC(=O)Nc3ccccc3N3CC(C)(C)c4c(C(F)(F)F)ccc(O)c43)sc2C1 [Example 20, 1-(5-Ethyl-4,5,6,7-tetrahydrothiazolo[5,4-c]pyridin-2-yl)-3-(2-(7-hydroxy-3,3-dimethyl-4-(trifluoromethyl)indolin-1-yl)phenyl)urea]
Ki [1]: 18.6 nM | IC50 [2]: 0.95 µM

CC(C)CN1CCc2nc(NC(=O)Nc3ccccc3N3CC(C)(C)c4c(C(F)(F)F)ccc(O)c43)sc2C1 [Example 21, 1-(2-(7-Hydroxy-3,3-dimethyl-4-(trifluoromethyl)indolin-1-yl)phenyl)-3-(5-isobutyl-4,5,6,7-tetrahydrothiazolo[5,4-c]pyridin-2-yl)urea]
Ki [1]: 7.9 nM | IC50 [2]: 0.07 µM

CC(C)(C)CN1CCc2nc(NC(=O)Nc3ccccc3N3CC(C)(C)c4c(C(F)(F)F)ccc(O)c43)sc2C1 [Example 22, 1-(2-(7-Hydroxy-3,3-dimethyl-4-(trifluoromethyl)indolin-1-yl)phenyl)-3-(5-neopentyl-4,5,6,7-tetrahydrothiazolo[5,4-c]pyridin-2-yl)urea]
Ki [1]: 8 nM | IC50 [2]: 0.21 µM

CC1(C)CN(c2ccccc2NC(=O)Nc2nc3c(s2)CN(CC2CC2)CC3)c2c(O)ccc(C(F)(F)F)c21 [Example 23, 1-(5-(Cyclopropylmethyl)-4,5,6,7-tetrahydrothiazolo[5,4-c]pyridin-2-yl)-3-(2-(7-hydroxy-3,3-dimethyl-4-(trifluoromethyl)indolin-1-yl)phenyl)urea]
Ki [1]: 10.4 nM | IC50 [2]: 1.01 µM

CCC1(CC)CN(c2ccccc2NC(=O)Nc2ccc(OC(F)(F)F)cc2)c2c(O)ccc(C(F)(F)F)c21 [Example 24, 1-(2-(3,3-Diethyl-7-hydroxy-4-(trifluoromethyl)indolin-1-yl)phenyl)-3-(4-(trifluoromethoxy)phenyl)urea]
Ki [1]: 7.6 nM | IC50 [2]: 0.22 µM

CCC1(CC)CN(c2ccccc2NC(=O)Nc2ccc(C3CCN(CC(C)(C)C)CC3)cc2)c2c(O)ccc(C(F)(F)F)c21 [Example 25, 1-(2-(3,3-Diethyl-7-hydroxy-4-(trifluoromethyl)indolin-1-yl)phenyl)-3-(4-(1-neopentylpiperidin-4-yl)phenyl)urea]
Ki [1]: 6.3 nM | IC50 [2]: 0.26 µM

CCC1(CC)CN(c2ccccc2NC(=O)Nc2ccc(C(C)(C)C)cc2)c2c(O)ccc(F)c21 [Example 26, 1-(4-tert-Butylphenyl)-3-(2-(3,3-diethyl-4-fluoro-7-hydroxyindolin-1-yl)phenyl)urea]
Ki [1]: 5.1 nM | IC50 [2]: 0.98 µM

CCc1ccc(NC(=O)Nc2ccccc2N2CC(CC)(CC)c3c(F)ccc(O)c32)cc1 [Example 27, 1-(2-(3,3-Diethyl-4-fluoro-7-hydroxyindolin-1-yl)phenyl)-3-(4-ethylphenyl)urea]
Ki [1]: 3.1 nM | IC50 [2]: 1.02 µM

CCC1(CC)CN(c2ccccc2NC(=O)Nc2ccc(C3CCN(CC(C)C)CC3)cc2)c2c(O)ccc(F)c21 [Example 28, 1-(2-(3,3-Diethyl-4-fluoro-7-hydroxyindolin-1-yl)phenyl)-3-(4-(1-isobutylpiperidin-4-yl)phenyl)urea]
Ki [1]: 8.1 nM | IC50 [2]: 0.54 µM

CCC1(CC)CN(c2ccccc2NC(=O)Nc2ccc(C3CCCN3CC(C)(C)C)cc2)c2c(O)ccc(F)c21 (centres unmarked) [Example 29, 1-(2-(3,3-Diethyl-4-fluoro-7-hydroxyindolin-1-yl)phenyl)-3-(4-(1-neopentylpyrrolidin-2-yl)phenyl)urea]
Ki [1]: 3.6 nM | IC50 [2]: 0.3 µM

CCC1(CC)CN(c2ccccc2NC(=O)Nc2ccc(C3CCCN3CC(C)C)cc2)c2c(O)ccc(F)c21 (centres unmarked) [Example 30, 1-(2-(3,3-Diethyl-4-fluoro-7-hydroxyindolin-1-yl)phenyl)-3-(4-(1-isobutylpyrrolidin-2-yl)phenyl)urea]
Ki [1]: 5.1 nM | IC50 [2]: 0.28 µM

CCC1(CC)CN(c2ccccc2NC(=O)Nc2csc(Cl)n2)c2c(O)ccc(F)c21 [Example 31, 1-(2-Chlorothiazol-4-yl)-3-(2-(3,3-diethyl-4-fluoro-7-hydroxyindolin-1-yl)phenyl)urea]
Ki [1]: 3.3 nM | IC50 [2]: 0.53 µM

CCSc1nsc(NC(=O)Nc2ccccc2N2CC(CC)(CC)c3c(F)ccc(O)c32)n1 [Example 33, 1-(2-(3,3-Diethyl-4-fluoro-7-hydroxyindolin-1-yl)phenyl)-3-(3-(ethylthio)-1,2,4-thiadiazol-5-yl)urea]
Ki [1]: 7.6 nM | IC50 [2]: 0.55 µM
